# Assay results taken from patent publication US20040143004A1, “Metronomic dosing of taxanes” (priority 2004, published 2004).
# Test system: endothelial cells in MATRIGEL plugs
# Method: LX1 human lung tumor fragments that were maintained by serial subcutaneous passage in athymic (nu/nu) Balb/c mice were implanted subcutaneously as small fragments approximately 0.1 mm^3 in size. Tumor volume doubling time for this tumor in these studies was 2.8 days. When tumors reached the size range of 150-200 mm^3, liquid [sequence] was injected subcutaneously on the side contralateral to the tumor. Treatment was initiated 24 hours later at varying doses and schedules. Prior to implanting, [sequence] is prepared by placing solidified [sequence] on ice overnight at 4 C. in accordance with the method described by Passiniti et al. (Lab. Invest. 1992 67:519-28). At the liquid phase and while on ice, VEGF and bFGF (Peprotech, Inc. Rocky Hill, N.J.) is added to the [sequence] at final respective concentrations of 75 ng/ml and 300 ng/ml. […] These plugs were then processed for paraffin embedding and sectioned at 5 μm thickness followed by staining with hematoxylin and eosin prior to quantitative analysis. The number of endothelial cells in plugs was quantitated using the IMAGEPRO PLUS software (Media Cybernetics, Inc., Silver Spring, Md.) at a magnification of 20×. […]
# Angiogenesis is evaluated in these plugs as the number of endothelial cells migrating into plugs from compound treated groups relative to the vehicle treated group.
structure (smiles),measurement,setting,value
"COC(=O)O[C@@]12CO[C@@H]1C[C@H](O)[C@@]1(C)C(=O)[C@H](OC(C)=O)C3=C(C)[C@@H](OC(=O)[C@H](O)[C@@H](NC(=O)OC(C)(C)C)C(C)(C)C)C[C@@](O)([C@@H](OC(=O)c4ccccc4)[C@H]21)C3(C)C [Formula I, 3′-tert-butyl-3′-N-tert-butyloxycarbonyl-4-deacetyl-3′-dephenyl-3′-N-debenzoyl-4-O-methoxycarbonyl-paclitaxel]",dose below MTD at which anti-angiogenic effects are still observed in vivo,fold lower than the maximum tolerated dose,approximately 13 fold
same,maximum tolerated dose (MTD),"mice, q2dx5 schedule",60 mg/kg
